Data reported in paper PMC6749314, “Development of the Tumor-Specific Antigen-Derived Synthetic Peptides as Potential Candidates for Targeting Breast and Other Possible Human Carcinomas” (Molecules, 2019).
Like-named read-outs stand apart in the source and are kept apart here. Each block holds one substance with its values, some of them ahead of it.

What was measured:
[1] = biological target: human epidermal growth factor receptor 2 (HER2) (human (endogenous in SKBR3, MCF7, T47D)) (UniProt P04626); test: radioligand binding; saturation binding of 99mTc-labeled peptide (0.1-30 nM) to ~300,000 MCF7 cells in low-serum media, 60 min, room temperature; non-specific binding with ~200-fold molar excess of unlabeled peptide; nonlinear regression
[2] = biological target: human epidermal growth factor receptor 2 (HER2) (human (endogenous in SKBR3, MCF7, T47D)) (UniProt P04626); test: radioligand binding; saturation binding of 99mTc-labeled peptide (0.1-30 nM) to ~300,000 T47D cells in low-serum media, 60 min, room temperature; non-specific binding with ~200-fold molar excess of unlabeled peptide; nonlinear regression
[3] = test system: T47D breast cancer cell line; test: In vitro tumor cell binding (saturation, Kd); design: species or system human; conditions: for Kd: T47D, ~300,000 cells, 0.1-30 nM radiopeptide, 60 min, room temperature, duplicate, non-specific with ~200-fold excess unlabeled peptide, mean ± SD
Protocol: (§1) The cell-binding studies of ^99mTc-labeled HER2 and MUC1 peptides into respective HER2 and MUC1-positive human breast cancer cell lines (American Type Culture Collection, Rockville, MD, USA) was performed according to the method described previously. In brief, ~300,000 cells (in 0.3 mL low-serum media) were incubated with various amounts of radiopeptides, ranging between 0.1 and 30 nM of peptides (prepared from the serial dilutions of HPLC-purified radiopeptides), in duplicate for 60 min at room temperature. Incubation was terminated by dilution with cold saline (0.3 mL) and the cells were pelleted by centrifugation. The cell-pellets was then rapidly washed with cold saline to remove any unbound peptide and centrifuged to collect supernatants. Radioactivity in the cell-pellet and the washings was measured in a γ-counter. Non-specific binding was determined in the presence of ~200-fold molar excess of unlabeled peptide. Specific binding was calculated by subtracting the non-specifically bound radioactivity from that of the total binding. The dissociation constant (Kd) was calculated using a plot of specific cell-bound radioactivity versus increasing concentrations of the radiopeptide using a nonlinear regression analysis program (GraphPad Prism Software Inc., San Diego, CA, USA).

[4] = test system: MCF7 breast cancer cell line; test: In vitro tumor cell binding (saturation, Kd); design: species or system human; conditions: ~300,000 cells, 0.1-30 nM radiopeptide, 60 min, room temperature, duplicate, non-specific with ~200-fold excess unlabeled peptide, mean ± SD
Protocol: as §1

MCF7 cells = test: Cellular internalization (acid wash); format: cell-based, human; conditions: % of cell-surface bound radiopeptide internalized, acidic buffer pH 5.0, 10 min, 37 °C
Protocol: (§2) In order to differentiate between cell-surface bound and cellular internalized radioactivity, cell pellet was treated with 0.3 mL of acidic buffer (0.02 M sodium acetate in saline, pH 5.0) for 10 min at 37 °C at the end of the binding experiment, followed by centrifugation and washing with cold acidic buffer. The amount of cell surface-bound (acid-wash) and internalized (acid-resistant) radioactivity was determined by measuring the radioactivity of the supernatant and the cell-pellet, respectively, in a γ-counter.

T47D cells = test: Cellular internalization (acid wash); format: cell-based, human; conditions: % of cell-surface bound radiopeptide internalized, acidic buffer pH 5.0, 10 min, 37 °C
Protocol: as §2

MCF7 tumor xenografts = conditions: for tumor uptake: nude mice, mean ± SD
Protocol: (§3) In vivo biodistribution studies were performed on healthy Balb/c mice (n = 3–5 in each group, body mass 19–22 g) at 1 and 4 h after i.v. injection of the HPLC-purified radiopeptide (100 μL, 10–15 μCi, total peptide dose ~10 ng) via the lateral tail vein as described previously [54]. Mice were euthanized by cervical dislocation at specified times, the selected tissues/organs were removed, and radioactivity was measured in a γ-counter. Uptake of radioactivity in the tissues and organs was expressed as the percent injected dose per gram (% ID/g) of tissue/organ, which was calculated by comparison with standard solutions representing 10% of the injected dose per animal. For the clearance studies, radioactivity in the urine with bladder is expressed as the percent of the injected dose per organ (% ID/organ).
(§4) Approximately 7 million HER2-positive SKBR3 cells and MUC1-positive MCF7 and T47D breast tumor xenografts were injected subcutaneously into a group of nude female mice and allowed to grow for 4 to 6 weeks. After sufficient growth of tumors, the animals were sacrificed and the uptake of ^99mTc-HER2 and ^99mTc-MUC1 by the tumors and other major organs was determined by biodistribution experiments, as described above.
(§5) In general, for preclinical gamma camera imaging, each tumor-bearing mouse model was intravenously injected with ~200 μCi of ^99mTc-HER2 or ^99mTc-MUC1 peptide through the tail vein. Mouse static planar images were then acquired at 1 h after the radiotracer injection by a portable hand-held γ-camera equipped with CsI(Tl) scintillation detector, with intrinsic spatial resolution of 2.45 mm (IP guardian 2, Li-Tech, Italy).

[5] = test system: MDA-MB-231 breast xenografts; test: In vivo tumor targeting, MDA-MB-231 xenografts (negative control); conditions: nude mice, HER2-/MUC1-negative MDA-MB-231 xenografts, mean ± SD
T47D tumor xenografts = conditions: for tumor uptake: nude mice, mean ± SD
Protocol: as §3, §4

[6] = design: species or system Balb/c mice; conditions: mouse, in vivo, iv
Protocol: Approval for the animal protocol used in this study was obtained from the Institutional Animal Care and Use Committee. Animal studies were conducted according to the international regulations governing the safe and proper use of laboratory animals [48]. In vivo biodistribution studies were performed on healthy Balb/c mice (n = 3–5 in each group, body mass 19–22 g) at 1 and 4 h after i.v. injection of the HPLC-purified radiopeptide (100 μL, 10–15 μCi, total peptide dose ~10 ng) via the lateral tail vein as described previously [54]. Mice were euthanized by cervical dislocation at specified times, the selected tissues/organs were removed, and radioactivity was measured in a γ-counter. Uptake of radioactivity in the tissues and organs was expressed as the percent injected dose per gram (% ID/g) of tissue/organ, which was calculated by comparison with standard solutions representing 10% of the injected dose per animal. For the clearance studies, radioactivity in the urine with bladder is expressed as the percent of the injected dose per organ (% ID/organ).

[7] = Radio-HPLC retention time on C18 reversed-phase column; format: physicochemical; conditions: Econosphere C18 (10 μm, 250 × 4.6 mm), 0.1% TFA water/CH3CN, 5 to 95% B over 30 min, 1.1 mL/min, longer retention ascribed to higher lipophilicity
Protocol: The HPLC analysis and purification of the peptides were performed on a Shimadzu HPLC system using Econosphere C18 reversed-phase column (10 μm, 250 × 4.6 mm, Alltech, Deerfield, IL, USA). For HPLC experiments, a gradient solvent system of 0.1% (v/v) TFA in water (solvent A) and 0.1% (v/v) TFA in CH3CN (solvent B) at a flow rate of 1.1 mL/min was used. The HPLC gradient began with a solvent composition of 95% A and 5% B from 0 to 2.5 min followed by a linear gradient of 95% A and 5% B to 5% A and 95% B over 30 min. The gradient remained at this position for 3 min before switching back to 95% A and 5% B for another 7 min. The main peak of each radiolabeled peptide was isolated, and acetonitrile then evaporated under a stream of nitrogen gas. The HPLC system (Shimadzu Corporation, Kyoto, Japan) was equipped with a UV-VIS detector (Shimadzu Corporation, Kyoto, Japan) set at 220 nm, a Flow-count γ-radioactivity detection system (Bioscan Inc., Washington, DC, USA) and the Lauralite HPLC chromatogram analysis program (LabLogic Systems Ltd., Sheffield, UK). Radiochemical purity was estimated by evaluating radioactivity peaks eluted for each ^99mTc-labeled peptide from the HPLC column and calculating the area under the peak (ROI). The HPLC-purified compounds were reconstituted in sterile saline and used for in vitro and in vivo experiments.

[8] = format: physicochemical
From the text: Table 1 Characterization of ^99mTc-HER2 and ^99mTc-MUC1 peptides. | column: Log P (Octanol/Saline)

[9] = test system: HER2-positive SKBR3 breast cancer cell line; test: In vitro tumor cell binding (saturation, Kd); design: species or system human
Protocol: as §1

SKBR3 cells = test: Cellular internalization (acid wash); format: cell-based, human; conditions: % of cell-surface bound radiopeptide internalized, acidic buffer pH 5.0, 10 min, 37 °C
Protocol: as §2

[10] = test system: HER2-positive SKBR3 tumor xenografts; conditions: for tumor uptake: nude mice, n = 3-5, mean ± SD
Protocol: as §3, §4, §5

p185HER2/neu = conditions: binding to p185HER2/neu; ref [22],[23],[24]; cited from earlier work
From the text: AHNP peptide was able to disable HER2 tyrosine kinases in vitro and in vivo similar to the monoclonal antibody from which it was derived. […] It has been shown that AHNP diminished the early tyrosine phosphorylation of p185HER2/neu, and inhibited proliferation of p185HER2/neu overexpressing tumor cells in ...

[11] = test system: breast carcinoma xenografts; conditions: radiolabeled KCCYSL peptides, ref [8],[19]; cited from earlier work
From the text: Several small peptide molecules have been developed in recent years for targeting HER2-positive breast cancer. For example, a 6-amino-acid containing peptide, KCCYSL, was discovered by the phage display method after in vitro selection with a recombinant ERBB2 extracellular domain. The KCCYSL peptide, derivatized with different metal chelators (i.e., DOTA, NOTA, CB-TE2A, and DAP) and radiolabeled with radionuclide metal ions (e.g., ^111In, ^64Cu, ^99mTc), has been successfully used for in vivo imaging of HER2 overexpressing tumor models. The tumor cell binding affinity (Kd) of KCCYSL for ...

[12] = MCF7 xenografts, 1 h p.i., unblocked

- Kd [1]: 158 nM
- Kd [2]: 169 nM
Substance: 99mTc-HER2 hybrid peptide (Acetyl-Gly-Gly-Cys-ALA-Lys-Ile-Phe-Gly-Ser-Leu-Ala-Phe-Leu-Lys-Cys-Cys-Tyr-Ser-Leu-CONH2)

- hepatobiliary excretion (liver + intestines) (MCF7 tumor xenografts; mouse, in vivo): below 13 % ID
- radioactivity excreted in the urine (MCF7 tumor xenografts; mouse, in vivo): up to 49 % ID
- accumulation in the kidneys (T47D tumor xenografts; mouse, in vivo): 2.26 ± 0.36 % ID/g
- cleared from the kidneys (T47D tumor xenografts; mouse, in vivo): 48%
- hepatobiliary excretion (T47D tumor xenografts; mouse, in vivo): below 13 % ID
- initial accumulation in the kidneys (T47D tumor xenografts; mouse, in vivo): 4.35 ± 1.0 % ID/g
- radioactivity remaining in the blood circulation (T47D tumor xenografts; mouse, in vivo): 0.30 ± 0.07 % ID/g
- radioactivity found in the urine [6]: up to 47.0 ± 6.28 % ID
- HPLC Retention Time [7]: 14.10 min
- Log P (Octanol/Saline) [8]: −2.22 ± 0.12
Substance: Ac-GGCEPDTRP-NH2 [^99mTc-MUC1]
- Kd [3]: 3.48 ± 0.84 nM
- binding affinity higher to T47D cell line compared to MCF7 cell line ([3]; ratio of Kd values): 3 fold
- Kd [4]: 10.3 ± 1.55 nM
- % Internalization (MCF7 cells): 18.92 ± 2.16%
- % Internalization (T47D cells): 21.11 ± 2.95%
- tumor-to-blood ratio (MCF7 tumor xenografts; MCF7 xenografts, 1 h p.i.): 2.39
- tumor-to-muscle ratio (MCF7 tumor xenografts; MCF7 xenografts, 1 h p.i.): 18.47
- tumor-to-blood ratio (MCF7 tumor xenografts; MCF7 xenografts, 4 h p.i.): 1.09
- tumor-to-muscle ratio (MCF7 tumor xenografts; MCF7 xenografts, 4 h p.i.): 11.20
- washout from the tumors (MCF7 tumor xenografts; MCF7 xenografts, over 4 h): 60%
- tumor uptake, blocked (MCF7 tumor xenografts; MUC1-positive (MCF7) xenografts, 100 μg of unlabeled MUC1 peptide 30 min before injection of radiopeptide): 1.05 ± 0.21 % ID/g
- reduction of tumor uptake by blocking dose (MCF7 tumor xenografts; MUC1-positive (MCF7) xenografts, 100 μg unlabeled MUC1 peptide 30 min before, P = 0.02): approximately 62%
- tumor uptake (MCF7 tumor xenografts; [12]): 2.77 ± 0.63 % ID/g
- tumor uptake (MCF7 tumor xenografts; MCF7 xenografts, 4 h p.i.): 1.12 ± 0.30 % ID/g
- gamma camera imaging of tumor (MCF7 tumor xenografts; nude mouse, MCF7 xenograft, 1 h p.i., ~200 μCi i.v.): detectable in the image
- tumor uptake ([5]; 1 h p.i.): 0.64 ± 0.13 % ID/g
- tumor uptake ([5]; 4 h p.i.): 0.41 ± 0.10 % ID/g
- tumor-to-blood ratio (T47D tumor xenografts; T47D xenografts, 1 h p.i.): 3.27
- tumor-to-muscle ratio (T47D tumor xenografts; T47D xenografts, 1 h p.i.): 12.62
- tumor-to-muscle ratio (T47D tumor xenografts; T47D xenografts, 4 h p.i.): 11.40
- tumor uptake (T47D tumor xenografts; T47D xenografts, 1 h p.i.): 2.65 ± 0.54 % ID/g
- tumor uptake (T47D tumor xenografts; T47D xenografts, 4 h p.i.): 1.14 ± 0.21 % ID/g

- radioactivity found in the urine [6]: up to 40.0 ± 5.10 % ID
- hepatobiliary excretion (liver + intestines) ([10]; mouse, in vivo): below 15 % ID
- kidney accumulation and retention ([10]; mouse, in vivo): up to 10 % ID/g
- radioactivity excreted in the urine ([10]; mouse, in vivo): up to 41 % ID
- HPLC Retention Time [7]: 20.0 min
- Log P (Octanol/Saline) [8]: 1.38 ± 0.06
Substance: Acetyl-Gly^19-Gly^18-Cys^17-ALA^16-Lys^15-Ile^14-Phe^13-Gly^12-Ser^11-Leu^10-Ala^9-Phe^8-Leu^7-Lys^6-Cys^5-Cys^4-Tyr^3-Ser^2-Leu^1-CONH2 [^99mTc-HER2]
- Kd [3]: 169 ± 22.3 nM
- Kd [4]: 158 ± 24.6 nM
- Kd ([9]; SKBR3, ~300,000 cells, 0.1-30 nM radiopeptide, 60 min, room temperature, duplicate, non-specific with ~200-fold excess unlabeled peptide, mean ± SD): 50 ± 14.2 nM
- binding affinity higher for SKBR3 cells than MCF7 and T47D cell lines ([9]; ratio of Kd values): more than 3 fold
- % Internalization (SKBR3 cells): 19.90 ± 5.35%
- % Internalization (MCF7 cells): 12.16 ± 3.20%
- % Internalization (T47D cells): 11.85 ± 2.83%
- tumor uptake (MCF7 tumor xenografts; [12]): 1.33 ± 0.41 % ID/g
- tumor uptake (MCF7 tumor xenografts; MCF7 xenografts, 4 h p.i.): 0.91 ± 0.22 % ID/g
- tumor uptake ([5]; 1 h p.i.): 0.66 ± 0.13 % ID/g
- tumor uptake ([5]; 4 h p.i.): 0.31 ± 0.10 % ID/g
- tumor uptake (T47D tumor xenografts; T47D xenografts, 1 h p.i.): 1.25 ± 0.32 % ID/g
- tumor uptake (T47D tumor xenografts; T47D xenografts, 4 h p.i.): 0.80 ± 0.17 % ID/g
- tumor-to-blood ratio ([10]; SKBR3 xenografts, 1 h p.i.): 1.54
- tumor-to-muscle ratio ([10]; SKBR3 xenografts, 1 h p.i.): 9.37
- tumor-to-blood ratio ([10]; SKBR3 xenografts, 4 h p.i.): 1.34
- tumor-to-muscle ratio ([10]; SKBR3 xenografts, 4 h p.i.): 8.71
- washout from the tumors ([10]; SKBR3 xenografts, over 4 h): 57%
- tumor uptake, blocked ([10]; SKBR3 xenografts, 100 μg of HER2 peptide 30 min before injection of radiopeptide): 1.07 ± 0.24 % ID/g
- reduction of tumor uptake by blocking dose ([10]; SKBR3 xenografts, 100 μg of HER2 peptide 30 min before, P = 0.02): approximately 62%
- tumor uptake ([10]; SKBR3 xenografts, 1 h p.i., unblocked): 2.81 ± 0.79 % ID/g
- tumor uptake ([10]; SKBR3 xenografts, 4 h p.i.): 1.22 ± 0.25 % ID/g
- gamma camera imaging of tumor ([10]; nude mouse, SKBR3 xenografts, 1 h p.i., ~200 μCi i.v.): detectable in the image

Substance: FCDGFYACYADVGGG [AHNP, anti-HER2/neu peptidomimetic designed from heavy-chain CDR3 loop of trastuzumab]
- Kd (p185HER2/neu): 150 nM

Substance: KCCYSL [literature values for chelator-derivatized, radiolabeled forms]
- tumor uptake [11]: below 1 % ID/g
